Consider two compounds from patent US20180296537A1, “METHODS AND COMPOSITIONS FOR DIAGNOSING, TREATING, AND MONITORING TREATMENT OF SHANK3 DEFICIENCY ASSOCIATED DISORDERS” (Novartis AG, priority 2015, published 2018).

The structures appear in SMILES notation.

The test system of this assay is PMDS iPS-derived neurons. The experiment in a line: sEPSC recordings from iPS-derived PMDS neurons. It is filed as cell-based, human. An excerpt: Primary human dermal fibroblasts from neonatal (Invitrogen, Carlsbad, Calif.) and adults (University of Milano, Dr. Sala) were taken for reprogramming using the CytoTune-iPS reprogramming kit (Life Technologies, Carlsbad, Calif.) according to the standard protocol. Colonies with hallmark of pluripotent morphology were readily visible between days 17 and 20 after transduction. These were picked and subcloned multiple times on plates coated with Matrigel (BD Biosciences, San Jose, Calif.) in mTeSR medium until Sendai virus RNA could no longer be detected and the morphology looked stable. […] Karyotype analyses was performed by full-genome SNP analyses by Life&Brain Gmbh (Bonn). […] Neuronal precursors were differentiated from iPS cells by using a modified dual SMAD inhibition as described earlier (Chambers et al., 2009; Pecho-Vrieseling et al., 2014). Briefly, […] undifferentiated hiPSC were seeded in an ULA 96-well in 0.1 ml neural induction medium (20% knockout-serum replacement (Invitrogen), 0.1 mM MEM non-essential amino acids (Invitrogen), 0.1 mM 2-mercaptoethanol (Invitrogen), 75% […] (Invitrogen Gibco); Pen/Strep, 10 ng ml bhFGF (1:1,000, Invitrogen), 10 μM SB 431542 (1:1,000) (Tocris, Bristol, UK) and 1 μM LDN 193189 (1:10,000) (Stemgent) with 10 μM Rock inhibitor to prevent apoptosis (Calbiochem, Darmstadt, Germany). Two days later 0.1 ml of fresh induction media was added to the old one. The next day 30 embryoid bodies (EB) were transferred to a 35 mm matrigel dish with induction media. At day 10 EB's were cleaned to have only neuronal rosettes left. […]
Whole cell patch-clamp recordings were excluded if the access resistance exceeded 13 MΩ and changed more than 20% during the recordings. Data were recorded with a MultiClamp 700B (Molecular Devices) amplifier, filtered at 0.2 kHz, and digitised at 10 kHz. Data were acquired and analysed with Clampex 10.0, Clampfit 10.0 (Molecular Devices) and the Mini Analysis Program (Synaptosoft, Decatur, Ga.). […]

Where [1] appears, read: PMDS neurons, eight weeks in vitro, overnight treatment.

Consider `CCOC(=O)C1=C(N)Oc2ccc(Cl)cc2C1C(C#N)C(=O)OCC` (stereo not drawn) [SC79], for which the “frequency of spontaneous EPSCs (sEPSCs)” value is recorded as “completely rescued this impairment” under setting [1] and “restorative effect of SC79 was also observed” (neurons from second PMDS patient (PMDS-2)).

In the case of `CCN1/C(=C/C(C)=O)Sc2ccc(OC)cc21` [TG003, (Z)-1-(3-ethyl-5-methoxy-2,3-dihydrobenzothiazol-2-ylidene)propan-2-one], under setting [1], the “frequency of spontaneous EPSCs (sEPSCs)” value is listed as “completely rescued this impairment”.
